Data: US20220251071A1, “METHOD TO MAKE SMALL-MOLECULE MURINE DOUBLE MINUTE 2 PROTEIN (MDM2)-DEGRADING COMPOUNDS, COMPOUNDS FORMED THEREBY, AND PHARMACEUTICAL COMPOSITIONS CONTAINING THEM” (Wisconsin Alumni Research Foundation, priority 2019, published 2022)

Experiments:
[1] = biological target: T1, MDM2 (Homo sapiens, UniProt Q00987); experiment: Western blot of MDM2 degradation and downstream proteins; assay type: cell-based; settings: for MDM2 degradation (Western blot): RS4;11 leukemia cells, data not shown; for MDM2 degradation at 100 nM, 20 compared with 32: identical conditions
T1 construct: endogenous in cells; host or cells: RS4;11 (ATCC CRL-1873)
Procedure: (§1) The human acute leukemia RS4;11 cell line was purchased from American Type Culture Collection (ATCC Accession No. CRL-1873), and cultured in RPMI-1640 media (Corning Incorporated (USA), One Riverfront Plaza, Corning, N.Y. 14831) supplemented with 10% fetal bovine serum (FBS), 1% sodium pyruvate, 1% penicillin/streptomycin, and 10 mM HEPES at 37° C. under a humidified 5% CO2 atmosphere. The experiments were performed by using cells with 8-20 passages after purchasing.
Cells were treated with the indicated concentrations of compounds under the indicated time. Cells were collected and lysed with RIPA buffer (Corning) after being washed with cold PBS twice. The supernatant was collected after centrifugation at 16,000×g at 4° C. for 15 min. The protein concentration was measured with BCA (bicinchoninic acid) method. (Smith, P. K., et al. (1985) “Measurement of protein using bicinchoninic acid,” Anal. Biochem. 150(1):76-85.) The protein expressed in the whole cell lysates was identified by Western Blot. A quantity of 40 μg protein per sample was loaded and then separated by SDS-PAGE. Proteins in the gel was transferred to polyvinylidene fluoride (PVDF) membranes, then blocked with 5% non-fat milk, and probed with the primary antibodies at 4° C. overnight. The primary antibodies are as following: MDM2 (D1V2Z) (1:1000), p53 (DO-7) (1:1000), PARP (46D11) (1:1000), Caspase-3 (1:1000), and p21 Waf1/Cip 1(12D1) (1:1000), all of which were purchased from Cell Signaling Technology, Inc., 3 Trask Lane, Danvers, Mass. 01923, along with a-Tubulin (1:1000) and β-Actin (1:1000), which were purchased from R&D Systems, Inc., 614 McKinley Place NE, Minneapolis, Minn. 55413. The membrane was washed with TBS-T 3 times, and incubated with HRP-linked secondary antibodies for 1 h at room temperature, followed by washing with TBS-T. The membrane was incubated with ECL (Bio-rad) for 5 min. The protein band was visualized by using a Bio-Rad Chemi-Doc MP imaging system. The intensity of the band was measured by Image J software.

[2] = tested on: RS4;11 cells; experiment: MTT cell viability (anti-proliferation) assay; assay type: cell-based, human; settings: for IC50: Homo sapiens, RS4-11, MTT assay, 48 h incubation, read-out: IC50, inhibition of growth/proliferation of RS4;11 cells; for anti-proliferation effect, rank in screen / anti-proliferation potency relative to parent MDM2 inhibitor: RS4;11 cells; for anti-proliferation effect, rank in screen: compounds tested at 100 nM; for anti-proliferation potency relative to parent MDM2 inhibitor: 20 vs 1, 32 vs (4S, 5R)-1
Procedure: The “MTT assay” is a colorimetric assay for assessing cellular metabolic activity. NAD(P)H-dependent cellular oxidoreductase enzymes reflect the number of viable cells present. These enzymes are capable of reducing the tetrazolium dye 3-(4,5-dimethylthiazol-2-yl)-2,5-diphenyltetrazolium bromide (“MTT”) to its insoluble formazan, which has a purple color and whose concentration is then measured spectrophotometrically. The MTT assay is conventional and well known. See, for example, Stockert et al. (2018) “Tetrazolium salts and formazan products in Cell Biology: Viability assessment, fluorescence imaging, and labeling perspectives,” Acta Histochemica 120: 159-167. As used herein, “MTT assay” refers broadly to the MTT assay itself and to the well-known variations of it that use structurally related tetrazolium salts (e.g., XTT, MTS, etc.).
as §1
Cells were seeded in a 96-well cell culture plate at a density of 2×10^4 cells with 90 μL cell culture media overnight. The cells were then treated with the indicated dose of compounds, respectively, and incubated at 37° C. under a humidified 5% CO2 atmosphere for 48 h. After the incubation, the cells were treated with 10 μL of MTT solution (5 mg/mL) and incubated with another 4 h, followed by the addition of 100 μL of solubilizing solution. The plate was placed on the shaker for overnight at room temperature until the formazan were entirely dissolved. The plate was scanned at 570 nm and 690 nm. The absorbance was normalized to the DMSO-treated cells, and the IC50 was calculated by non-linear regression analysis using GraphPad Prism 6 software.

[3] = tested on: p53 transcriptional activity (MDM2, TP53, CDKN1A mRNA); experiment: qRT-PCR of mRNA levels of p53 target genes; assay type: cell-based, human; settings: RS4;11 cells, 6 h; for transcription of p53 targeted genes MDM2 and CDKN1A (p21): (4S,5R)-1 at 1 PM as printed, 32 at 100 nM
Procedure: Total RNA was extracted using GeneJET RNA Purification Kit (Thermo Scientific) and titrated by SYNERGY H1 Hybrid Multi-Mode Reader (BioTek) at 260 nm. 1 μg of total RNA was subjected to reverse transcription using High-Capacity cDNA Reverse Transcription Kit (appliedbiosystems). Quantitative RT-PCR was performed using PowerUp™ SYBR™ Green Master Mix (appliedbiosystems) and the amplification detected in a QuantStudio 7 Flex Real-Time PCR System (ThermoFisher Applied Biosystems).

[4] = tested on: p53; settings: xenograft tumor tissues; cited from earlier work
[5] = tested on: RS4;11 cells; experiment: Flow cytometry apoptosis, Annexin V / PI staining; assay type: cell-based, human; settings: 24 h, 100 nM or 1 μM
Procedure: Cells were seeded in a 6 cm circular cell culture dish at a density of 5×10^6 cells. After being settled overnight, the cells were treated with the indicated concentrations of compounds for 24 h. The collected cells were double stained with FITC Annexin V and PI according to the manufacturer's protocols. The apoptosis was analyzed using a FITC Annexin V apoptosis detection kit (556547, BD Biosciences, 2350 Qume Drive, San Jose, Calif. 95131).

T1 sequence (Q00987 whole entry): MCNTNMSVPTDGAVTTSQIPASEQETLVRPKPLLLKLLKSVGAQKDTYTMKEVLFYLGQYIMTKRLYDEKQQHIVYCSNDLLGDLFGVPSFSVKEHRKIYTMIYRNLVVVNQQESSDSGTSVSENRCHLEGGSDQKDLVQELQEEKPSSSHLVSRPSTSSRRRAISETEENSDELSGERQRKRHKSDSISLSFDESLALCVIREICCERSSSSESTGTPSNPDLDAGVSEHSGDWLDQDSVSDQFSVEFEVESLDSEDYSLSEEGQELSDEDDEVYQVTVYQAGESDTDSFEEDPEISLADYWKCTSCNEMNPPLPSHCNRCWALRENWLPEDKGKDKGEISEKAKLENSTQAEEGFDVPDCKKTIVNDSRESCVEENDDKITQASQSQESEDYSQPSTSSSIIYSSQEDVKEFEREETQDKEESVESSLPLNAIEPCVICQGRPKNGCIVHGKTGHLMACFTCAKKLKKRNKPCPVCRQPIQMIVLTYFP

| Compound | MDM2 degradation (Western blot) [1] | IC50 [2] [nM] | anti-proliferation effect, rank in screen [2] | anti-proliferation potency relative to parent MDM2 inhibitor [2] | MDM2 degradation at 100 nM, 20 compared with 32 ([1]; RS4;11 cells) | effect on TP53 mRNA [3] | transcription of p53 targeted genes MDM2 and CDKN1A (p21) [3] | further results |
| --- | --- | --- | --- | --- | --- | --- | --- | --- |
| CCOc1cc(C(C)(C)C)ccc1C1=NC(c2ccc(Cl)cc2)C(c2ccc(Cl)cc2)N1C(=O)N1CCN(C(=O)CCC#Cc2cccc3c2CN(C2CCC(=O)NC2=O)C3=O)CC1 (centres unmarked) [Compound 7, 3-(4-(5-(4-(2-(4-(tert-butyl)-2-ethoxyphenyl)-4,5-bis(4-chlorophenyl)-4,5-dihydro-1H-imidazole-1-carbonyl)piperazin-1-yl)-5-oxopent-1-yn-1-yl)-1-oxoisoindolin-2-yl)piperidine-2,6-dione] | degrade significant amounts of MDM2 | – | – | – | – | – | – | – |
| C=C1NC(=O)CCC1N1Cc2c(C#CCCCC(=O)NCC(=O)N3CCN(C(=O)N4C(c5ccc(C(C)(C)C)cc5OCC)=NC(c5ccc(Cl)cc5)C4c4ccc(Cl)cc4)CC3)cccc2C1=O (centres unmarked) [Compound 15, N-(2-(4-(2-(4-(tert-butyl)-2-ethoxyphenyl)-4,5-bis(4-chlorophenyl)-4,5-dihydro-1H-imidazole-1-carbonyl)piperazin-1-yl)-2-oxoethyl)-6-(2-(2-methylene-6-oxopiperidin-3-yl)-1-oxoisoindolin-4-yl)hex-5-ynamide] | degrade significant amounts of MDM2 | – | – | – | – | – | – | – |
| CCOc1cc(C(C)(C)C)ccc1C1=NC(c2ccc(Cl)cc2)C(c2ccc(Cl)cc2)N1C(=O)N1CCN(CC#Cc2cccc3c2CN(C2CCC(=O)NC2=O)C3=O)CC1 (racemic) [Compound 20, 3-(4-(3-(4-(2-(4-(tert-butyl)-2-ethoxyphenyl)-4,5-bis(4-chlorophenyl)-4,5-dihydro-1H-imidazole-1-carbonyl)piperazin-1-yl)prop-1-yn-1-yl)-1-oxoisoindolin-2-yl)piperidine-2,6-dione] | degrade significant amounts of MDM2 | 7.2 | most potent inhibitor of RS4;11 | ~1,000 fold | significant degradation of MDM2 was observed | – | – | – |
| CCOc1cc(C(C)(C)C)ccc1C1=N[C@@H](c2ccc(Cl)cc2)[C@@H](c2ccc(Cl)cc2)N1C(=O)N1CCNCC1 [(4S, 5R)-1, ((4S,5R)-2-(4-(tert-butyl)-2-ethoxyphenyl)-4,5-bis(4-chlorophenyl)-4,5-dihydro-1H-imidazol-1-yl)(piperazin-1-yl)methanone] | – | – | – | – | – | Neither MDM2 ligand (4S, 5R)-1 nor degrader 32 has any effect on TP53 | upregulated | – |
| CC(C)(C)C[C@@H]1N[C@@H](C(=O)N[C@H]2CC[C@H](O)CC2)[C@H](c2cccc(Cl)c2F)[C@]12C(=O)Nc1cc(Cl)ccc12 [SAR405838] | – | – | – | – | – | – | – | duration of p53 accumulation after a single dose [4]: only induced a few hours of p53 accumulation |
| CCOc1cc(C(C)(C)C)ccc1C1=N[C@@H](c2ccc(Cl)cc2)[C@@H](c2ccc(Cl)cc2)N1C(=O)N1CCN(CC#Cc2cccc3c2CN(C2CCC(=O)NC2=O)C3=O)CC1 (stereo partly drawn) [Compound 32, 3-(4-(3-(4-((4S,5R)-2-(4-(tert-butyl)-2-ethoxyphenyl)-4,5-bis(4-chlorophenyl)-4,5-dihydro-1H-imidazole-1-carbonyl)piperazin-1-yl)prop-1-yn-1-yl)-1-oxoisoindolin-2-yl)piperidine-2,6-dione] | degrade significant amounts of MDM2 | 3.2 | most potent compound as compared to 33 and 34 | ~1,000 fold | superior | Neither MDM2 ligand (4S, 5R)-1 nor degrader 32 has any effect on TP53 | more significant transcriptional upregulation | apoptosis induction, Annexin V-positive cells [5]: A large number of cells were identified in Annexin V-positive quadrants; MDM2 degradation on co-treatment with MDM2 ligand (4S, 5R)-1 or CRBN ligand lenalidomide ([1]; 32 at 100 nM, competitor 5 μM): significantly reduced; reversibility of MDM2 downregulation after washout ([1]; 12 h treatment, then fresh medium): reversible; MDM2 degradation on co-incubation with proteasome inhibitor MG132 ([1]; MG132 5 PM as printed): the degradation of MDM2 ceased; MDM2 and p53 protein levels ([1]; RS4;11 cells, 100 nM or 1 μM): MDM2 depleted and p53 was stabilized and upregulated; cleavage of PARP and Caspase-3 ([1]; RS4;11 cells, 100 nM or 1 μM): cleaved PARP and Caspase-3 were observed; p21 protein level ([1]; RS4;11 cells, 100 nM or 1 μM): increased level of p21; Dmax at 0.1 µM ([1]; RS4;11 cells, 24 h, observed at 100 nM, read-out: maximal level of MDM2 degradation (Dmax)): 90%; DC50 ([1]; RS4;11 cells, 24 h incubation, read-out: concentration at which 50% MDM2 degradation was detected (DC50)): 23 nM; time after washout without return of MDM2 to pre-treatment levels ([1]; RS4;11 cells, after removal of degrader): > 48 h; time at which MDM2 degradation was first observed ([1]; RS4;11 cells, time course): 1 h; time at which cleaved PARP was observed ([1]; RS4;11 cells, time course): 6 h |
